The values below come from patent US20230240290A1, “USE OF (Z)-3-HEXENYL ESTERS AND METHOD FOR PROTECTING PLANTS AGAINST PESTS” (UNIVERSITAT POLITÈCNICA DE VALÈNCIA, priority 2020, published 2023).

For one series, the system named is plant. Briefly: Growth and production of plants exposed to the volatile. The class given is in vivo.
For another series, the system named is Tuta absoluta. As to the kind of experiment: Laying of Tuta absoluta on exposed tomato plants. The class given is in vivo. Conditions: T. absoluta, 72 hours; permanent exposure. The protocol: It was also studied whether the defensive activation induced by exposure to (Z)-3-hexenyl propanoate could influence the development of two highly important phytophages in tomato cultivation, the red spider, T. urticae, and the lepidoptera T. absoluta. The individuals used in these experiments came from the captive breeding of these species that are kept in the IVIA described above. The exposure time of the plant to the volatile was tested on both phytophages in two different ways, one where the plant was only exposed to the volatile for 24 hours and then the herbivore to be assayed was immediately released, and the other where the volatile was permanently exposed throughout the experiment.
For this purpose, two climatic chambers were used under the same environmental conditions [25±2° C., 65±5% HR and 14:10 h (L:D) photoperiod], wherein, to avoid interference between the volatiles, one was assigned to the (Z)-3-hexenyl propanoate treatments and one to the control treatment. […]
Two consecutive experiments were performed to assess the effect of exposure to both volatiles on T. absoluta. […] The laying of T. absoluta was assessed in 8 tomato plants (cv. Moneymaker) per treatment. […] After this time, T. absoluta adults were removed, and the number of eggs was counted.

Series [1] relates to SI-PI-I (marker for plant proteinase inhibitors). As to the kind of experiment: Transcriptional response of SI-PI-I in tomato plants exposed to volatiles (laboratory). The settings on record: intact tomato plants exposed 24 h; filter paper, 1:10,000 ester:methanol; n=8. The format is in vivo, Solanum lycopersicum cv. Moneymaker. How it is done:
Moneymaker tomato plants were used. Two weeks after seed germination, the seedlings were individually transplanted into pots (8×8×8 cm). The plants were kept at 25±2° C., with a constant relative humidity of 65%±5% and a 14:10 h (light:dark) photoperiod. Tomato plants that had not received any pesticide treatment at four weeks of age (about 20 cm tall) were used. All volatiles used were obtained from Sigma-Aldrich (St. Louis, Mo., USA). Each volatile was exposed by using a 2×2 cm piece of filter paper on which 10 μl of a solution containing the corresponding volatile at a concentration of 1:10,000 [(Z)-3-hexenyl ester:methanol] was impregnated as an emitting source of the corresponding volatile (Pérez-Hedo, M. et al. Biocontrol, 63: 203-213 (2018)).
To activate a plant, two pieces of filter paper impregnated with the volatile were placed at the bottom of a 30×30×30 cm plastic cage (BugDorm-1 Insect Tents; MegaView Science Co., Ltd, Taichung, Taiwan) into which the plant was introduced. A control treatment was carried out in which the two pieces of filter paper were impregnated with 10 μl of methanol. Eight repetitions per treatment were performed. The plants of the treatments were kept exposed to the volatile without disturbing for 24 hours in separate and isolated climatic chambers to avoid any interference from the volatiles and were kept at 25±2° C., 65±10% RH, and a 14:10 h (L:D) photoperiod. […]
The methodology followed for extracting and quantifying gene expression was described by Pérez-Hedo et al. Journal of Pest Science 3: 543-554 (2015). The primers used were forward primer: 5′-[…]-3′ (SEQ ID NO: 1) and reverse primer: 5′-[…]-3′ (SEQ ID NO: 2) for the quantification of PR1, forward primer: 5′-[…]-3′ (SEQ ID NO: 3) and reverse primer: 5′-[…]-3′ (SEQ ID NO: 4) for SI-PI-I, and forward primer: 5′-[…]-3′ (SEQ ID NO: 5) and reverse primer: 5′-[…]-3′ (SEQ ID NO: 6) for the SI-PI-II gene. […]

`CC/C=C\CCOC(=O)CC` [(Z)-3-hexenyl propanoate]: in the series with plant, the “Growth or production of the plant” value was “does not reduce the growth or production of the plant”. Besides, the “Reduction in laying compared to the control” value in the series on Tuta absoluta turned out to be 67.2±15.0%. In series [1], the “Transcriptional response of SI-PI-I compared to the control” value is reported as “significantly overexpressed”.
